From patent publication US12377112B2, “Methods of treating neurocognitive disorders, chronic pain and reducing inflammation” (priority 2019, dated 2025)

Test system: healthy subjects
Assay: Phase 1 study: Life Changes Inventory (LCI)
Type: in vivo, human
Description: In some embodiments, the Life Changes Inventory (LCI) questionnaire is utilized to evaluate the safety and/or efficacy of psilocybin. The LCI is designed as a questionnaire to investigate those variables present in the day-to-day experience of adults that might relate either to stability or decline of intellectual ability.
The following list of outcome measures are non-exhaustive: • a. The short-term change from Baseline (Day −1 [Visit 2]) to Day 7 (Visit 5) in cognitive measures of attention, spatial and working memory and executive function was measured by a composite score of the CANTAB Panel (Spatial Working Memory [SWM], Rapid Visual Information Processing [RVP], Paired Associates Learning [PAL]). • b. The short-term change from Baseline (Day −1 [Visit 2]) to Day 7 (Visit 5) in Social Cognition Panel scales (Pictorial Empathy Test [PET], Reading the Mind in the eyes Test [RMET], Toronto Empathy Questionnaire [TEQ], Social Value Orientation [SVO], Scale of Social Responsibility [SSR]). • c. The change from Baseline (Day −1 [Visit 2]) to Day 28 (Visit 6) in cognitive measures of attention, spatial and working memory and executive function as measured by a composite score of the CANTAB Panel (SWM, RVP, PAL). • d. The long-term change from Baseline (Day −1 [Visit 2]) to Day 84 (Visit 7) in Social Cognition Panel scales (PET, RMET, TEQ, SVO, SSR). • e. Dose-related differences between cognitive effects of psilocybin at Baseline (Day −1 [Visit 2]), Day 7 (Visit 5) and Day 28 (Visit 6), as measured by a composite score of the CANTAB Panel (SWM, RVP, PAL). • f. Dose-related differences between psychological effects of psilocybin at Baseline (Day −1 [Visit 2]), Day 7 (Visit 5) and Day 84 (Visit 7), as measured by Social Cognition Panel scales (PET, RMET, TEQ, SVO, SSR). • g. Differences in cognitive effects of psilocybin between psilocybin-naïve and experienced subjects at Baseline (Day −1 [Visit 2]), Day 7 (Visit 5) and Day 28 (Visit 6), as measured by a composite score of the CANTAB Panel (SWM, RVP, PAL). • h. Differences in Positive and Negative Affect Schedule (PANAS) after study drug administration on Day 0 (Visit 3). • i. Differences between psilocybin and placebo in the Emotion Recognition Test (ERT), Intra-Extra Dimensional Set Shift (IED), One Touch Stockings (OTS), Verbal Fluency and Digit Span Forward at Day 7 (Visit 5). • j. A composite score of the CANTAB Panel, including the following tests: • i. Spatial Working Memory (SWM) (performed at Visit 2, Visit 5, and Visit 6). • ii. Rapid Visual Information Processing (RVP) (performed at Visit 2, Visit 5, and Visit 6). • iii. Paired Associates Learning (PAL) (performed at Visit 2, Visit 5, and Visit 6). • k. Cognitive Flexibility Panel • i. Emotion Recognition Task (ERT) (performed at Visit 5). • ii. Intra-Extra Dimensional Set Shift (IED) (performed at Visit 5). • iii. One Touch Stockings (OTS) (performed at Visit 5). • iv. Verbal Fluency (performed at Visit 5). • v. Digit Span Forward (performed at Visit 5). • l. Five Dimension Altered States of Consciousness questionnaire (5D-ASC) (performed at Visit 3). • m. PANAS (performed at Visit 2 and Visit 3). • n. NEO-Five Factor Inventory (NEO-FFI) (performed at Visit 2, Visit 5, and Visit 7). • o. Symptom Checklist-90 item (SCL-90) (performed at Visit 2, Visit 5, and Visit 7). • p. Life Changes Inventory (LCI): The LCI measures changes in attitudes and values after near-death experiences often used to evaluate personal transformation following spiritually oriented experiences and practices. (performed at Visit 5 and Visit 7). • q. Social Cognition Panel scales • i. Pictorial Empathy Test (PET) (performed at Visit 2, Visit 5, and Visit 7). • ii. Reading the Mind in the Eyes Test (RMET) (performed at Visit 2, Visit 5, and Visit 7). • iii. Social Value Orientation (SVO) (performed at Visit 2, Visit 5, and Visit 7). • iv. Toronto Empathy Questionnaire (TEQ) (performed at Visit 2, Visit 5, and Visit 7). • v. […]

[1] = Psilocybin 10 mg - Placebo, Day 7
[2] = Psilocybin 10 mg - Placebo, Day 84
[3] = Psilocybin 25 mg - Placebo, Day 7
[4] = Psilocybin 25 mg - Placebo, Day 84
[5] = Psilocybin (25 mg - 10 mg), Day 7
[6] = Psilocybin (25 mg - 10 mg), Day 84

CN(C)CCc1c[nH]c2cccc(OP(=O)(O)O)c12 [Psilocybin, psilocybin]
LCI appreciation for life, LS mean difference [1]: 0.6 | LCI appreciation of death, LS mean difference [1]: 0.1 | LCI concern for others, LS mean difference [1]: 0.4 | LCI concern for worldly achievement, LS mean difference [1]: −0.2 | LCI concern social, LS mean difference [1]: 0.1 | LCI quest for meaning, LS mean difference [1]: 0.4 | LCI religiousness, LS mean difference [1]: −0.1 | LCI self-acceptance, LS mean difference [1]: 0.7 | LCI spirituality, LS mean difference [1]: 0.3 | LCI-absolute change, LS mean difference [1]: 0.4 | LCI appreciation for life, LS mean difference [2]: 0.6 | LCI appreciation of death, LS mean difference [2]: 0.2 | LCI concern for others, LS mean difference [2]: 0.4 | LCI concern for worldly achievement, LS mean difference [2]: −0.2 | LCI concern social, LS mean difference [2]: 0.1 | LCI quest for meaning, LS mean difference [2]: 0.4 | LCI religiousness, LS mean difference [2]: −0.0 | LCI self-acceptance, LS mean difference [2]: 0.5 | LCI spirituality, LS mean difference [2]: 0.4 | LCI-absolute change, LS mean difference [2]: 0.4 | LCI appreciation for life, LS mean difference [3]: 0.5 | LCI appreciation of death, LS mean difference [3]: 0.1 | LCI concern for others, LS mean difference [3]: 0.4 | LCI concern for worldly achievement, LS mean difference [3]: −0.1 | LCI concern social, LS mean difference [3]: 0.2 | LCI quest for meaning, LS mean difference [3]: 0.4 | LCI religiousness, LS mean difference [3]: 0.0 | LCI self-acceptance, LS mean difference [3]: 0.5 | LCI spirituality, LS mean difference [3]: 0.2 | LCI-absolute change, LS mean difference [3]: 0.3 | LCI appreciation for life, LS mean difference [4]: 0.5 | LCI appreciation of death, LS mean difference [4]: 0.2 | LCI concern for others, LS mean difference [4]: 0.5 | LCI concern for worldly achievement, LS mean difference [4]: −0.1 | LCI concern social, LS mean difference [4]: 0.1 | LCI quest for meaning, LS mean difference [4]: 0.4 | LCI religiousness, LS mean difference [4]: 0.0 | LCI self-acceptance, LS mean difference [4]: 0.5 | LCI spirituality, LS mean difference [4]: 0.4 | LCI-absolute change, LS mean difference [4]: 0.4 | LCI appreciation for life, LS mean difference [5]: −0.2 | LCI appreciation of death, LS mean difference [5]: −0.0 | LCI concern for others, LS mean difference [5]: 0.0 | LCI concern for worldly achievement, LS mean difference [5]: 0.1 | LCI concern social, LS mean difference [5]: 0.1 | LCI quest for meaning, LS mean difference [5]: 0.0 | LCI religiousness, LS mean difference [5]: 0.1 | LCI self-acceptance, LS mean difference [5]: −0.1 | LCI spirituality, LS mean difference [5]: −0.1 | LCI-absolute change, LS mean difference [5]: −0.1 | LCI appreciation for life, LS mean difference [6]: −0.1 | LCI appreciation of death, LS mean difference [6]: 0.0 | LCI concern for others, LS mean difference [6]: 0.1 | LCI concern for worldly achievement, LS mean difference [6]: 0.1 | LCI concern social, LS mean difference [6]: 0.0 | LCI quest for meaning, LS mean difference [6]: −0.0 | LCI religiousness, LS mean difference [6]: 0.1 | LCI self-acceptance, LS mean difference [6]: 0.0 | LCI spirituality, LS mean difference [6]: −0.0 | LCI-absolute change, LS mean difference [6]: −0.0
